{"source": "patent US9895325B2", "about": "“Tablet composition comprising cinacalcet hydrochloride” (SYNTHON B.V., priority 2012, dated 2018)", "origin": "cited, not measured here", "details": "pH 1", "data": [{"smiles": "C[C@@H](NCCCc1cccc(C(F)(F)F)c1)c1cccc2ccccc12.Cl", "note": "[Cinacalcet hydrochloride]", "values": [{"measurement": "solubility", "value": "approx. 0.1 mg/ml"}]}]}
